Converted amounts (≈) assume the structure as drawn.
How the values were obtained:
[1] = Solubility of 5-azacytidine in various solvents at ambient temperature (visual, solvent aliquot addition); assay type: physicochemical; conditions: thermodynamic from solid
Description: Solubility was estimated by treating a weighed sample of 5-azacytidine with measured aliquots of the test solvent at ambient temperature, with shaking and/or sonication between aliquots. Dissolution was determined by visual inspection. Solubility numbers were calculated by dividing the […]. The actual solubilities may be greater than the numbers calculated because of the use of solvent aliquots that were too large or because of slow dissolution rates. […] The solubility number is expressed as “greater than” if dissolution occurred on addition of the first solvent aliquot.

[2] = tested on: subjects with higher-risk MDS; conditions: Phase III study, administered subcutaneously; cited from earlier work

Nc1ncn([C@@H]2O[C@H](CO)[C@@H](O)[C@H]2O)c(=O)n1 [5-azacytidine, 4-amino-1-β-D-ribofuranosyl-1,3,5-triazin-2(1H)-one]
solubility ([1]; 1:1 methanol/water, aqueous with cosolvent or surfactant or cyclodextrin, 1:1 methanol/water): 2800 µg/mL (≈ 11.5 mM)
solubility ([1]; 1:2 methanol/water, aqueous with cosolvent or surfactant or cyclodextrin, 1:2 methanol/water): 3100 µg/mL (≈ 12.7 mM)
solubility ([1]; 1:2 methanol/water, aqueous with cosolvent or surfactant or cyclodextrin, 1:2 methanol/water (second line printed with this solvent)): 4600 µg/mL (≈ 18.8 mM)
solubility ([1]; DMF, organic solvent or mixture): 1700 µg/mL (≈ 6.96 mM)
solubility ([1]; DMSO, organic solvent or mixture): 2200 µg/mL (≈ 9.01 mM)
Survival and time to AML transformation or death [2]: significantly prolonged survival and time to AML transformation or death

— patent publication US9968627B2 (Celgene Corporation, priority 2013, dated 2018)
